PubChem BioAssay AID588844 (Broad Institute, 2011)
Activity calls are given as the source filed them. The rule behind the calls is not given here.

system: not listed separately; assay: cytotoxicity toward E-cadherin-knockdown HMLE CSC-like cells – cell-based, CellTiter-Glo luminescence, dry powder, set 2, dose response (AID 588844); conditions: HMLE_shECad viability, CellTiter-Glo luminescence, 72 h; at 32 µM (top of the series)

Question: Which remaining viability fraction does the source give for `Cc1csc(NC(=O)c2ccc(COc3cccc(F)c3)o2)n1` here?
Answer: The remaining viability fraction was 65.6% (inactive).

Question: For `Cc1ccc(/C=C/C(=O)NC2=NCCS2)cc1`, which remaining viability fraction is on record?
Answer: The remaining viability fraction was 75.7% (inactive).

Question: With `COc1ccc(/C=C/C(=O)NC2=NCCS2)c(OC)c1` as the molecule, how does the remaining viability fraction read?
Answer: The remaining viability fraction was 70.8% (inactive).

system: HMLE_shECad viability, CellTiter-Glo luminescence, 72 h; assay: as above; conditions: not given

Question: For `CC(C)c1ccc(/C=C/C(=O)NC2=NCCS2)cc1`, which AC50 is on record?
Answer: The AC50 was 0.3 µM.

Question: For `Cc1csc(NC(=O)c2ccc(COc3ccccc3)o2)n1`, which AC50 is on record?
Answer: The AC50 was 0.07 µM.

Question: For `O=C(NC1CCCC1)c1ccc(COc2ccccc2)o1`, which AC50 is on record?
Answer: Its AC50 is 23.5 µM.

Question: For `Cc1csc(NC(=O)c2ccc(COc3cccc(Cl)c3)o2)n1`, which AC50 is on record?
Answer: The AC50 was 3 µM.

Question: For `O=C(/C=C/c1ccc(-c2ccccc2)cc1)NC1=NCCS1`, which AC50 is on record?
Answer: Its AC50 is 0.625 µM.

Question: For `Cc1csc(NC(=O)c2ccc(COc3ccccc3F)o2)n1`, which AC50 is on record?
Answer: The AC50 was 2.43 µM.
